{"source": "patent US20030170643A1", "about": "“Regulation of apoB treatment and drug screening for cardiovascular and metabolic disorders or syndromes” (priority 1999, published 2003)", "system": "rat hepatoma cells", "assay": "TBARS assay of ROS in cell lysates of rat hepatoma cells", "assay_type": "cell-based", "details": "fatty acid alone", "in_short": "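Rat hepatoma cells pre-incubated with DHA alone or DHA plus co-treatments (iron chelator DFX or lipid antioxidants), pulse-labelled 15 min with radiolabelled Met/Cys then chased in unlabelled medium. ROS in cell lysates at end of chase measured by standard TBARS assay, compared against BSA control.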", "data": [{"compound": "CCCCCCCC/C=C\\CCCCCCCC(=O)O", "note": "[OA, oleic acid]", "values": [{"measurement": "reactive oxygen species (ROS), TBARS assay, fatty acid compared to BSA", "result": "does not increase"}]}]}
